Test results from patent US11149036B2, “3-(1H-pyrazol-4-yl)pyridine allosteric modulators of the M4 muscarinic acetylcholine receptor” (Merck Sharp & Dohme Corp., priority 2017, dated 2021).
pEC50: −log10 of the molar value.

Target: T1, human M4 muscarinic acetylcholine receptor (Homo sapiens, UniProt P08173)
T1 construct: expressed in transfected cells; host or cells: CHO-K1
T1 sequence (P08173 1-479): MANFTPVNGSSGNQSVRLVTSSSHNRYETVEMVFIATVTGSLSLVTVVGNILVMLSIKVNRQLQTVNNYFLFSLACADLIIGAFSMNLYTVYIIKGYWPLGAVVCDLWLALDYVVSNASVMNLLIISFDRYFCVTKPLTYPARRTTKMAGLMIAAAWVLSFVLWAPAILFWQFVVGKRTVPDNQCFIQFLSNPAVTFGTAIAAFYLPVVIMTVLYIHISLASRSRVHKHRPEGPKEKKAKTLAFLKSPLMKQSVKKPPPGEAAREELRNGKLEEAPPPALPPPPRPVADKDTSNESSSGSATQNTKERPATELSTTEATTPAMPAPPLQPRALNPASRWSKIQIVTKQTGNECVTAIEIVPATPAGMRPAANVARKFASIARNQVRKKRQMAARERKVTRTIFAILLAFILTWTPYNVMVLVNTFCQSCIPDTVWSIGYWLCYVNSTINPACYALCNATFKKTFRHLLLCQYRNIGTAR
Assay: human FLIPR-based M4 PAM assay (CHO-K1 cells with human M4 receptor and Gaqi5, calcium dye fluorescence)
Assay type: cell-based
Details: inflection point (IP) of dose response curve, acetylcholine added at 20% of maximum response, read-out: M4 FLIPPR Hu IP
Method in brief: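 CHO-K1 cells stably expressing human M4 with chimeric Gaqi5, calcium-dye loaded ~1 h at 37° C; compound added at increasing concentrations 4 min before acetylcholine at an EC20 concentration (sometimes a further EC70 addition).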

SMILES | pEC50
Cc1nnc2cc(-c3nc(C#N)c(F)cc3-c3cnn(CC4(F)CCCC4)c3)ccn12 [Example 90, 3-fluoro-5-(1-((1-fluorocyclopentyl)methyl)-1H-pyrazol-4-yl)-6-(3-methyl-[1,2,4]triazolo [4,3-a]pyridin-7-yl)picolinonitrile] | 7.38
Cc1cn2ccc(-c3ncc(Cl)cc3-c3cnn(CC4(F)CCCC4)c3)cc2n1 [Example 110, 7-(5-chloro-3-(1-((1-fluorocyclopentyl)methyl)-1H-pyrazol-4-yl)pyridin-2-yl)-2-methylimidazo[1,2-a] pyridine] | 7.64
Cc1ccc(-c2cnn(CC3(F)CCCC3)c2)c(-c2ccc3c(c2)C(=O)N(C)C3)n1 [Example 1, 6-(3-(1-((1-fluorocyclopentyl)methyl)-1H-pyrazol-4-yl)-6-methylpyridin-2-yl)-2-methylisoindolin-1-one] | 7.77
Fc1cnc(-c2ccn3cc(C(F)(F)F)nc3c2)c(-c2cnn(CC3(F)CCCC3)c2)c1 [Example 98, 7-(5-fluoro-3-(1-((1-fluorocyclopentyl)methyl)-1H-pyrazol-4-yl)pyridin-2-yl)-2-(trifluoromethyl)imidazo [1,2-a]pyridine] | 7.09
Cn1cnc2cc(-c3nc(F)c(F)cc3-c3cnn(CC4(C)CCCC4)c3)cnc21 [compound 138, 6-(5,6-difluoro-3-(1-((1-methylcyclopentyl)methyl)-1H-pyrazol-4-yl)pyridin-2-yl)-3-methyl-3H-imidazo[4,5-b]pyridine] | 7.15
Cc1ccc(-c2cnn(CC3(F)CCCC3)c2F)c(-c2ccc3cccnc3c2)n1 [Example 22, 7-(3-(5-fluoro-1-((1-fluorocyclopentyl)methyl)-1H-pyrazol-4-yl)-6-methylpyridin-2-yl)quinoline] | 7.82
Cn1cnc2cc(-c3nc(C#N)c(F)cc3-c3cnn(CC4(C)CCCC4)c3)cnc21 [Example 85, 3-fluoro-6-(3-methyl-3H-imidazo[4,5-b]pyridin-6-yl)-5-(1-((1-methylcyclopentyl)methyl)-1H-pyrazol-4-yl)picolinonitrile] | 7.43
Cc1ccc(-c2cnn(CC3C[C@H](F)[C@@H](F)C3)c2)c(-c2ccc3cccnc3c2)n1 (racemic) [Example 29, 7-(3-(1-(((3S,4S and 3R,4R)-3,4-difluorocyclopentyl)methyl)-1H-pyrazol-4-yl)-6-methylpyridin-2-yl)quinoline] | 7.41
COc1cc2ccc(-c3nc(C)ccc3-c3cnn(CC4(C)CCC(F)(F)C4)c3)cc2nn1 (single isomer, unassigned) [Example 150, (R or S)-7-(3-(1-((3,3-difluoro-1-methylcyclopentyl)methyl)-1H-pyrazol-4-yl)-6-methylpyridin-2-yl)-3-methoxycinnoline] | 7.66
Cc1cn2ccc(-c3ncccc3-c3cnn(CC4C[C@@H](F)[C@H](F)C4)c3)cc2n1 [Example 5, 7-(3-(1-(((3R,4R)-3,4-difluorocyclopentyl)methyl)-1H-pyrazol-4-yl)pyridin-2-yl)-2-methylimidazo[1,2-a]pyridine] | 7.06
CC1(Cn2cc(-c3ccc(C#N)nc3-c3ccn4nc(CF)nc4c3)cn2)CCCC1 [Example 78, 6-(2-(fluoromethyl)-[1,2,4]triazolo[1,5-a]pyridin-7-yl)-5-(1-((1-methylcyclopentyl)methyl)-1H-pyrazol-4-yl)picolinonitrile] | 7.54
c1cnc2cc(-c3nc(-n4cccn4)ccc3-c3cnn(CC4CCCC4)c3)ccc2c1 [Example 167, 7-(3-(1-(cyclopentylmethyl)-1H-pyrazol-4-yl)-6-(1H-pyrazol-1-yl)pyridin-2-yl)quinoline] | 7.01
Cc1ccc(-c2cnn(CC3(F)CCCC3)c2)c(-c2ccc3c(c2)ncn3C)n1 [Example 16, 5-(3-(1-((1-fluorocyclopentyl)methyl)-1H-pyrazol-4-yl)-6-methylpyridin-2-yl)-1-methyl-1H-benzo[d]imidazole] | 7.47

More lines, now with the values ahead:

pEC50 | SMILES
7.52 | COc1cc2ccc(-c3nc(C)ccc3-c3cnn(CC4(C)CCC(F)(F)C4)c3)cc2nn1 (single isomer, unassigned; isomer b) [Example 151, (S or R)-7-(3-(1-((3,3-difluoro-1-methylcyclo-pentyl)methyl)-1H-pyrazol-4-yl)-6-methylpyridin-2-yl)-3-methoxycinnoline isomer B]
7.10 | Cc1cnc(-c2ccn3ncnc3c2)c(-c2cnn(CC3(C)CCCC3)c2)c1 [Example 113, 7-(5-methyl-3-(1-((1-methylcyclopentyl)methyl)-1H-pyrazol-4-yl)pyridin-2-yl)-[1,2,4]triazolo[1,5-a] pyridine]
7.26 | COCc1nc2cc(-c3nc(C#N)ccc3-c3cnn(CC4(F)CCCC4)c3)ccn2n1 [Example 155, 5-(1-((1-fluorocyclopentyl)methyl)-1H-pyrazol-4-yl)-6-(2-(methoxymethyl)-[1,2,4]triazolo[1,5-a]pyridin-7-yl)picolinonitrile]
7.62 | Cc1cn2ccc(-c3nc(C#N)c(F)cc3-c3cnn(CC4(C)CCCC4)c3)cc2n1 [Example 88, 3-fluoro-5-(1-((1-methylcyclopentyl)methyl)-1H-pyrazol-4-yl)-6-(2-methylimidazo [1,2-a]pyridin-7-yl)picolinonitrile]
7.19 | Cc1nc2cc(-c3nc(C#N)ccc3-c3cnn(CC4(C)CCCC4)c3)cnc2o1 [Example 80, 5-(1-((1-methylcyclopentyl)methyl)-1H-pyrazol-4-yl)-6-(2-methyloxazolo[5,4-b]pyridin-6-yl)picolinonitrile]
7.60 | COc1cnc2cc(-c3nc(C)ccc3-c3cnn(CC4(C)CCCC4)c3)ccc2c1 [Example 10, 3-methoxy-7-(6-methyl-3-(1-((1-methylcyclopentyl)methyl)-1H-pyrazol-4-yl)pyridin-2-yl)quinoline]
7.10 | Fc1cnc(-c2ccc3cccnc3c2)c(-c2cnn(CC3(F)CCCC3)c2)c1 [Example 95, 7-(5-fluoro-3-(1-((1-fluorocyclopentyl)methyl)-1H-pyrazol-4-yl)pyridin-2-yl) quinoline]
7.32 | N#Cc1ccc(-c2nc(C#N)ccc2-c2cnn(CC3CCCC3)c2)cc1 [Example 160, 6-(4-cyanophenyl)-5-(1-(cyclopentylmethyl)-1H-pyrazol-4-yl)picolinonitrile]
7.21 | N#Cc1ccc(-c2cnn(CC3(F)CCCC3)c2)c(-c2ccc3conc3c2)n1 [Example 62, 6-(benzo[c]isoxazol-6-yl)-5-(1-((1-fluorocyclopentyl)methyl)-1H-pyrazol-4-yl)picolinonitrile]
7.96 | CC1(Cn2cc(-c3cc(F)c(C#N)nc3-c3ccn4ccnc4c3)cn2)CCCC1 [Example 87, 3-fluoro-6-(imidazo[1,2-a]pyridin-7-yl)-5-(1-((1-methylcyclopentyl)methyl)-1H-pyrazol-4-yl)picolinonitrile]
7.15 | Cc1cc(-c2cnn(CC3(F)CCCC3)c2)c(-c2ccn3ncnc3c2)nc1C#N [Example 143, 6-([1,2,4]triazolo[1,5-a]pyridin-7-yl)-5-(1-((1-fluorocyclopentyl)methyl)-1H-pyrazol-4-yl)-3-methylpicolinonitrile]
7.16 | Cn1cnc2cc(-c3ncc(Cl)cc3-c3cnn(CC4(C)CCCC4)c3)cnc21 [Example 109, 6-(5-chloro-3-(1-((1-methylcyclopentyl)methyl)-1H-pyrazol-4-yl)pyridin-2-yl)-3-methyl-3H-imidazo[4,5-b] pyridine]
7.03 | Cc1ccc(-c2cnn(CC3CCCC3)c2)c(-c2cnc3c(c2)ncn3C)n1 [Example 7, 6-(3-(1-(cyclopentylmethyl)-1H-pyrazol-4-yl)-6-methylpyridin-2-yl)-3-methyl-3H-imidazo[4,5-b]pyridine]
7.42 | FC(F)c1cn2ccc(-c3ncc(Cl)cc3-c3cnn(CC4(F)CCCC4)c3)cc2n1 [Example 111, 7-(5-chloro-3-(1-((1-fluorocyclopentyl)methyl)-1H-pyrazol-4-yl)pyridin-2-yl)-2-(difluoromethyl)imidazo [1,2-a]pyridine]
7.12 | Cn1nc2ccc(-c3nc(C#N)ccc3-c3cnn(CC4(C)CCCC4)c3)cc2n1 [Example 125, 6-(2-methyl-2H-benzo[d][1,2,3]triazol-5-yl)-5-(1-((1-methylcyclopentyl)methyl)-1H-pyrazol-4-yl)picolinonitrile]
7.30 | N#Cc1ccc(-c2cnn(CC3CCC(F)C3)c2)c(-c2ccc3cccnc3c2)n1 (single isomer, unassigned) [compound 146, 5-(1-(((1R,3S) or (1S,3R)-3-fluoro-cyclopentyl)methyl)-1H-pyrazol-4-yl)-6-(quinolin-7-yl)picolinonitrile]
7.20 | Cc1cn2ccc(-c3ncccc3-c3cnn(CC4C[C@H](F)[C@@H](F)C4)c3)cc2n1 [Example 4, 7-(3-(1-(((3S,4S)-3,4-difluorocyclopentyl)methyl)-1H-pyrazol-4-yl)pyridin-2-yl)-2-methylimidazo[1,2-a] pyridine]
7.07 | CC1(Cn2cc(-c3ccc(C#N)nc3-c3ccc4cc(CF)nnc4c3)cn2)CCCC1 [Example 164, 6-(3-(fluoromethyl)cinnolin-7-yl)-5-(1-((1-methylcyclopentyl)methyl)-1H-pyrazol-4-yl)picolinonitrile]
